How the values were obtained:
barnyard grass [1] = assay: Test Example 3: herbicidal effect by foliage application, Wagner pot (Table 18, symbol H); format: in vivo, barnyard grass (Echinochloa crus-galli)
Method in brief: (§1)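 Plants were sown in alluvial soil held under 0.1–0.5 cm standing water and grown 14 days in a greenhouse at 25–30 °C. An emulsifiable formulation, water-diluted to the set dose, was then sprayed onto the foliage, and effects were scored three weeks later using previously defined criteria.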

Chinese sprangletop = assay: Test Example 3: herbicidal effect by foliage application, Wagner pot (Table 18, symbol D); format: in vivo, chinese sprangletop (Leptochloa chinensis)
Method in brief: as §1

rice flat sedge = assay: Test Example 3: herbicidal effect by foliage application, Wagner pot (Table 18, symbol E); format: in vivo, rice flat sedge (Cyperus iria)
Method in brief: as §1

southern crabgrass = assay: Test Example 5: herbicidal effect by foliage application, plastic box (Table 20, symbol F); format: in vivo, southern crabgrass (Digitaria ciliaris); details: foliage application
Method in brief: (§2)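 Plants sown in sterilized diluvial soil and grown 14 days in a greenhouse at 25° C to 30° C, then sprayed on the foliage with the compound's emulsion diluted in water to a predetermined herbicide amount. Injury to weeds and crops scored three weeks after application on a visual rating scale.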

green foxtail = assay: Test Example 5: herbicidal effect by foliage application, plastic box (Table 20, symbol G); format: in vivo, green foxtail (Setaria viridis); details: foliage application
Method in brief: as §2

barnyard grass [2] = assay: Test Example 5: herbicidal effect by foliage application, plastic box (Table 20, symbol H); format: in vivo, barnyard grass (Echinochloa crus-galli); details: foliage application
Method in brief: as §2

wild oat = assay: Test Example 5: herbicidal effect by foliage application, plastic box (Table 20, symbol I); format: in vivo, wild oat (Avena fatua); details: foliage application
Method in brief: as §2

blackgrass = assay: Test Example 5: herbicidal effect by foliage application, plastic box (Table 20, symbol J); format: in vivo, blackgrass (Alopecurus myosuroides); details: foliage application
Method in brief: as §2

Italian ryegrass = assay: Test Example 5: herbicidal effect by foliage application, plastic box (Table 20, symbol K); format: in vivo, Italian ryegrass (Lolium multiflorum); details: foliage application
Method in brief: as §2

windgrass = assay: Test Example 5: herbicidal effect by foliage application, plastic box (Table 20, symbol L); format: in vivo, windgrass (Apera spica-venti); details: foliage application
Method in brief: as §2

velvetleaf = assay: Test Example 5: herbicidal effect by foliage application, plastic box (Table 20, symbol M); format: in vivo, velvetleaf (Abutilon theophrasti); details: foliage application
Method in brief: as §2

redroot pigweed = assay: Test Example 5: herbicidal effect by foliage application, plastic box (Table 20, symbol N); format: in vivo, redroot pigweed (Amaranthus retroflexus); details: foliage application
Method in brief: as §2

lambsquarters = assay: Test Example 5: herbicidal effect by foliage application, plastic box (Table 20, symbol O); format: in vivo, lambsquarters (Chenopodium album); details: foliage application
Method in brief: as §2

chickweed = assay: Test Example 5: herbicidal effect by foliage application, plastic box (Table 20, symbol P); format: in vivo, common chickweed (Stellaria media); details: foliage application
Method in brief: as §2

false cleavers = assay: Test Example 5: herbicidal effect by foliage application, plastic box (Table 20, symbol Q); format: in vivo, false cleavers (Galium spurium); details: foliage application
Method in brief: as §2

persian speedwell = assay: Test Example 5: herbicidal effect by foliage application, plastic box (Table 20, symbol R); format: in vivo, Persian speedwell (Veronica persica); details: foliage application
Method in brief: as §2

[3] = 320 g/ha, three weeks after application
[4] = AAH 320 g/ha, three weeks after application
[5] = AAH 485 g/ha, three weeks after application
[6] = amount of applied herbicide 320 g/ha
[7] = 320 g/ha, evaluated three weeks after application

## Cc1nn(C)c(=O)c(-c2c(-c3ccoc3)sc3ccccc23)c1O [1-081]
Barnyard grass [1]; 320 g/ha
  herbicidal effect on H (barnyard grass), rating 0-5: 3 (Herbicidal rate of 40% or more and less than 70%)
Chinese sprangletop; 320 g/ha
  herbicidal effect on D (Chinese sprangletop), rating 0-5: 0 (Herbicidal rate of 5% or less (almost no effect))
Rice flat sedge; 320 g/ha
  herbicidal effect on E (rice flat sedge), rating 0-5: 4 (Herbicidal rate of 70% or more and less than 90%)
Southern crabgrass; [3]
  herbicidal effect grade, F: southern crabgrass: 0 (Herbicidal rate of 5% or less (almost no effect))
Green foxtail; [3]
  herbicidal effect grade, G: green foxtail: 0 (Herbicidal rate of 5% or less (almost no effect))
Barnyard grass [2]; [3]
  herbicidal effect grade, H: barnyard grass: 0 (Herbicidal rate of 5% or less (almost no effect))
Wild oat; [3]
  herbicidal effect grade, I: wild oat: 0 (Herbicidal rate of 5% or less (almost no effect))
blackgrass; [3]
  herbicidal effect grade, J: blackgrass: 0 (Herbicidal rate of 5% or less (almost no effect))
Italian ryegrass; [3]
  herbicidal effect grade, K: Italian ryegrass: 3 (Herbicidal rate of 40% or more and less than 70%)
windgrass; [3]
  herbicidal effect grade, L: windgrass: 0 (Herbicidal rate of 5% or less (almost no effect))
velvetleaf; [3]
  herbicidal effect grade, M: velvetleaf: 3 (Herbicidal rate of 40% or more and less than 70%)
Redroot pigweed; [3]
  herbicidal effect grade, N: redroot pigweed: 2 (Herbicidal rate of 20% or more and less than 40%)
lambsquarters; [3]
  herbicidal effect grade, O: lambsquarters: 0 (Herbicidal rate of 5% or less (almost no effect))
chickweed; [3]
  herbicidal effect grade, P: chickweed: 3 (Herbicidal rate of 40% or more and less than 70%)
False cleavers; [3]
  herbicidal effect grade, Q: false cleavers: 2 (Herbicidal rate of 20% or more and less than 40%)
Persian speedwell; [3]
  herbicidal effect grade, R: persian speedwell: 4 (Herbicidal rate of 70% or more and less than 90%)

## Cc1nn(C)c(=O)c(-c2c(-c3ccc4c(c3)OCCO4)sc3ccccc23)c1OS(C)(=O)=O [1-094]
Barnyard grass [1]; 320 g/ha
  herbicidal effect on H (barnyard grass), rating 0-5: 3 (Herbicidal rate of 40% or more and less than 70%)
Chinese sprangletop; 320 g/ha
  herbicidal effect on D (Chinese sprangletop), rating 0-5: 0 (Herbicidal rate of 5% or less (almost no effect))
Rice flat sedge; 320 g/ha
  herbicidal effect on E (rice flat sedge), rating 0-5: 3 (Herbicidal rate of 40% or more and less than 70%)
Southern crabgrass; [4]
  F: southern crabgrass, herbicidal effect: 0 (Herbicidal rate of 5% or less (almost no effect))
Green foxtail; [4]
  G: green foxtail, herbicidal effect: 0 (Herbicidal rate of 5% or less (almost no effect))
Barnyard grass [2]; [4]
  H: barnyard grass, herbicidal effect: 0 (Herbicidal rate of 5% or less (almost no effect))
Wild oat; [4]
  I: wild oat, herbicidal effect: 0 (Herbicidal rate of 5% or less (almost no effect))
blackgrass; [4]
  J: blackgrass, herbicidal effect: 0 (Herbicidal rate of 5% or less (almost no effect))
Italian ryegrass; [4]
  K: Italian ryegrass, herbicidal effect: 0 (Herbicidal rate of 5% or less (almost no effect))
windgrass; [4]
  L: windgrass, herbicidal effect: 0 (Herbicidal rate of 5% or less (almost no effect))
velvetleaf; [4]
  M: velvetleaf, herbicidal effect: 3 (Herbicidal rate of 40% or more and less than 70%)
Redroot pigweed; [4]
  N: redroot pigweed, herbicidal effect: 1 (Herbicidal rate of 5% or more and less than 20%)
lambsquarters; [4]
  O: lambsquarters, herbicidal effect: 1 (Herbicidal rate of 5% or more and less than 20%)
chickweed; [4]
  P: chickweed, herbicidal effect: 0 (Herbicidal rate of 5% or less (almost no effect))
False cleavers; [4]
  Q: false cleavers, herbicidal effect: 0 (Herbicidal rate of 5% or less (almost no effect))
Persian speedwell; [4]
  R: persian speedwell, herbicidal effect: 4 (Herbicidal rate of 70% or more and less than 90%)

## CCCC(=O)Oc1c(C)nn(C)c(=O)c1-c1c(-c2cc3c(cc2Cl)OCCO3)sc2ccccc12 [1-096]
Barnyard grass [1]; 485 g/ha
  herbicidal effect on H (barnyard grass), rating 0-5: 5 (Herbicidal rate of 90% or more (almost completely withered))
Chinese sprangletop; 485 g/ha
  herbicidal effect on D (Chinese sprangletop), rating 0-5: 2 (Herbicidal rate of 20% or more and less than 40%)
Rice flat sedge; 485 g/ha
  herbicidal effect on E (rice flat sedge), rating 0-5: 0 (Herbicidal rate of 5% or less (almost no effect))
Southern crabgrass; [5]
  F: southern crabgrass, herbicidal effect: 2 (Herbicidal rate of 20% or more and less than 40%)
Green foxtail; [5]
  G: green foxtail, herbicidal effect: 2 (Herbicidal rate of 20% or more and less than 40%)
Barnyard grass [2]; [5]
  H: barnyard grass, herbicidal effect: 3 (Herbicidal rate of 40% or more and less than 70%)
Wild oat; [5]
  I: wild oat, herbicidal effect: 0 (Herbicidal rate of 5% or less (almost no effect))
blackgrass; [5]
  J: blackgrass, herbicidal effect: 0 (Herbicidal rate of 5% or less (almost no effect))
Italian ryegrass; [5]
  K: Italian ryegrass, herbicidal effect: 0 (Herbicidal rate of 5% or less (almost no effect))
windgrass; [5]
  L: windgrass, herbicidal effect: 0 (Herbicidal rate of 5% or less (almost no effect))
velvetleaf; [5]
  M: velvetleaf, herbicidal effect: 1 (Herbicidal rate of 5% or more and less than 20%)
Redroot pigweed; [5]
  N: redroot pigweed, herbicidal effect: 4 (Herbicidal rate of 70% or more and less than 90%)
lambsquarters; [5]
  O: lambsquarters, herbicidal effect: 4 (Herbicidal rate of 70% or more and less than 90%)
chickweed; [5]
  P: chickweed, herbicidal effect: 3 (Herbicidal rate of 40% or more and less than 70%)
False cleavers; [5]
  Q: false cleavers, herbicidal effect: 1 (Herbicidal rate of 5% or more and less than 20%)
Persian speedwell; [5]
  R: persian speedwell, herbicidal effect: 5 (Herbicidal rate of 90% or more (almost completely withered))

## CCCC(=O)Oc1c(C)nn(C)c(=O)c1-c1c(-c2ccc(Oc3ccccc3)cc2)sc2ccccc12 [1-150]
Barnyard grass [1]; 320 g/ha
  herbicidal effect on H (barnyard grass), rating 0-5: 2 (Herbicidal rate of 20% or more and less than 40%)
Chinese sprangletop; 320 g/ha
  herbicidal effect on D (Chinese sprangletop), rating 0-5: 3 (Herbicidal rate of 40% or more and less than 70%)
Rice flat sedge; 320 g/ha
  herbicidal effect on E (rice flat sedge), rating 0-5: 3 (Herbicidal rate of 40% or more and less than 70%)
Southern crabgrass; [4]
  F: southern crabgrass, herbicidal effect: 0 (Herbicidal rate of 5% or less (almost no effect))
Green foxtail; [4]
  G: green foxtail, herbicidal effect: 0 (Herbicidal rate of 5% or less (almost no effect))
Barnyard grass [2]; [4]
  H: barnyard grass, herbicidal effect: 0 (Herbicidal rate of 5% or less (almost no effect))
Wild oat; [4]
  I: wild oat, herbicidal effect: 0 (Herbicidal rate of 5% or less (almost no effect))
blackgrass; [4]
  J: blackgrass, herbicidal effect: 0 (Herbicidal rate of 5% or less (almost no effect))
Italian ryegrass; [4]
  K: Italian ryegrass, herbicidal effect: 0 (Herbicidal rate of 5% or less (almost no effect))
windgrass; [4]
  L: windgrass, herbicidal effect: 0 (Herbicidal rate of 5% or less (almost no effect))
velvetleaf; [4]
  M: velvetleaf, herbicidal effect: 3 (Herbicidal rate of 40% or more and less than 70%)
Redroot pigweed; [4]
  N: redroot pigweed, herbicidal effect: 4 (Herbicidal rate of 70% or more and less than 90%)
lambsquarters; [4]
  O: lambsquarters, herbicidal effect: 2 (Herbicidal rate of 20% or more and less than 40%)
chickweed; [4]
  P: chickweed, herbicidal effect: 5 (Herbicidal rate of 90% or more (almost completely withered))
False cleavers; [4]
  Q: false cleavers, herbicidal effect: 5 (Herbicidal rate of 90% or more (almost completely withered))
Persian speedwell; [4]
  R: persian speedwell, herbicidal effect: 5 (Herbicidal rate of 90% or more (almost completely withered))

## Cc1ccc2sc(-c3ccc4c(c3)OCCO4)c(-c3c(O)c(C)nn(C)c3=O)c2c1 [2-158]
Barnyard grass [1]; [6]
  herbicidal effect on H: barnyard grass: 0 (Herbicidal rate of 5% or less (almost no effect))
Chinese sprangletop; [6]
  herbicidal effect on D: Chinese sprangletop: 1 (Herbicidal rate of 5% or more and less than 20%)
Rice flat sedge; [6]
  herbicidal effect on E: rice flat sedge: 4 (Herbicidal rate of 70% or more and less than 90%)
Southern crabgrass; [7]
  herbicidal effect on F: southern crabgrass (criteria 0-5): 0 (Herbicidal rate of 5% or less (almost no effect))
Green foxtail; [7]
  herbicidal effect on G: green foxtail (criteria 0-5): 0 (Herbicidal rate of 5% or less (almost no effect))
Barnyard grass [2]; [7]
  herbicidal effect on H: barnyard grass (criteria 0-5): 0 (Herbicidal rate of 5% or less (almost no effect))
Wild oat; [7]
  herbicidal effect on I: wild oat (criteria 0-5): 0 (Herbicidal rate of 5% or less (almost no effect))
blackgrass; [7]
  herbicidal effect on J: blackgrass (criteria 0-5): 0 (Herbicidal rate of 5% or less (almost no effect))
Italian ryegrass; [7]
  herbicidal effect on K: Italian ryegrass (criteria 0-5): 0 (Herbicidal rate of 5% or less (almost no effect))
windgrass; [7]
  herbicidal effect on L: windgrass (criteria 0-5): 0 (Herbicidal rate of 5% or less (almost no effect))
velvetleaf; [7]
  herbicidal effect on M: velvetleaf (criteria 0-5): 2 (Herbicidal rate of 20% or more and less than 40%)
Redroot pigweed; [7]
  herbicidal effect on N: redroot pigweed (criteria 0-5): 0 (Herbicidal rate of 5% or less (almost no effect))
lambsquarters; [7]
  herbicidal effect on O: lambsquarters (criteria 0-5): 0 (Herbicidal rate of 5% or less (almost no effect))
chickweed; [7]
  herbicidal effect on P: chickweed (criteria 0-5): 5 (Herbicidal rate of 90% or more (almost completely withered))
False cleavers; [7]
  herbicidal effect on Q: false cleavers (criteria 0-5): 0 (Herbicidal rate of 5% or less (almost no effect))
Persian speedwell; [7]
  herbicidal effect on R: persian speedwell (criteria 0-5): 5 (Herbicidal rate of 90% or more (almost completely withered))
